Laboratory results from publication PMC6270026, “Antibacterial and Herbicidal Activity of Ring-Substituted 2-Hydroxynaphthalene-1-carboxanilides” (Molecules, 2013).
Values after ≈ are worked out from the molar mass of the structure shown. Read-outs that look alike come from different tables or passages of the source.

Tests used:
[1] = Lipophilicity determination by RP-HPLC (capacity factor log k); format: physicochemical; details: isocratic, MeOH 60%/H2O 40%, C18
Protocol: A HPLC system Agilent 1200 equipped with DAD detector (Agilent, Santa Clara, CA, USA) was used. A chromatographic column Symmetry® C18 5 μm, 4.6 × 250 mm, Part No. WAT054275, (Waters Corp., Milford, MA, USA) was used. The HPLC separation process was monitored and evaluated by EZChrom Elite software ver. 3.3.2 (Agilent). Isocratic elution by a mixture of MeOH p.a. (60%) and H2O-HPLC Mili-Q grade (40%) as a mobile phase was used. The total flow of the column was 1.0 mL/min, injection 20 μL, column temperature 40 °C and sample temperature 10 °C. The detection wavelength 210 nm was chosen. The KI methanolic solution was used for the dead time (tD) determination. Retention times (tR) were measured in minutes. The capacity factors k were calculated according to formula k = (tR − tD)/tD, where tR is the retention time of the solute, whereas tD denotes the dead time obtained using an unretained analyte. Log k, calculated from the capacity factor k, is used as the lipophilicity index converted to log P scale.

[2] = tested on: photosynthetic electron transport (PET) in spinach chloroplasts; assay: Inhibition of photosynthetic electron transport (PET) in spinach chloroplasts; format: biochemical, Spinacia oleracea L.; details: DCPIP photoreduction
Protocol: Chloroplasts were prepared from spinach (Spinacia oleracea L.) according to Masarovicova and Kralova. The inhibition of photosynthetic electron transport (PET) in spinach chloroplasts was determined spectrophotometrically (Genesys 6, Thermo Electron Scientific Instruments, Madison, WI, USA), using an artificial electron acceptor 2,6-dichlorophenol-indophenol (DCPIP) according to Kralova et al., and the rate of photosynthetic electron transport was monitored as a photoreduction of DCPIP. The measurements were carried out in phosphate buffer (0.02 mol/L, pH 7.2) containing sucrose (0.4 mol/L), MgCl2 (0.005 mol/L) and NaCl (0.015 mol/L). The chlorophyll content was 30 mg/L in these experiments and the samples were irradiated (~100 W/m^2 with 10 cm distance) with a halogen lamp (250 W) using a 4 cm water filter to prevent warming of the samples (suspension temperature 22 °C). The studied compounds were dissolved in DMSO due to their limited water solubility. […] The inhibitory efficiency of the studied compounds was expressed by IC50 values, i.e., by molar concentration of the compounds causing 50% decrease in the oxygen evolution rate relative to the untreated control.

[3] = tested on: Staphylococcus aureus ATCC 29213; assay: In vitro antibacterial susceptibility testing (broth dilution MIC); format: cell-based; details: ATCC29213; Staphylococcus aureus ATCC 29213, 24 h, 37 °C
Protocol: (§1) The synthesized compounds were evaluated for in vitro antibacterial activity against representatives of multidrug-resistant bacteria, clinical isolates of methicillin-resistant Staphylococcus aureus (MRSA) 63718, SA 630 and SA 3202 that were obtained from the National Institute of Public Health, Prague, Czech Republic. Staphylococcus aureus ATCC 29213 was used as a reference and quality control strain. Ampicillin (Sigma-Aldrich) was used as the standard. Prior to testing, each strain was passaged onto nutrient agar (Oxoid, Hampshire, UK) with 5% of bovine blood, and bacterial inocula were prepared by suspending a small portion of bacterial colony in sterile phosphate buffered saline (pH 7.2–7.3). The cell density was adjusted to 0.5 McFarland units using a densitometer (Densi-La-Meter, LIAP, Riga, Latvia). The final inoculum was made by 1:20 dilution of the suspension with the Mueller-Hinton broth (MH broth). […] The final concentrations of the evaluated compounds ranging from 256 μg/mL to 0.008 μg/mL. The broth dilution micro-method modified according to NCCLS guidelines in MH broth was used to determine the minimum inhibitory concentration (MIC). Drug-free controls, sterility controls and controls consisted of MH broth and DMSO alone were included. The determination of results was performed visually after 24 h of static incubation in the darkness at 37 °C in an aerobic atmosphere. The MICs were defined as the lowest concentration of the compound at which no visible bacterial growth was observed.

[4] = tested on: methicillin-resistant Staphylococcus aureus (MRSA) 63718; assay: as above; format: cell-based; details: clinical isolate MRSA 63718, 24 h, 37 °C
Protocol: as §1

[5] = tested on: methicillin-resistant Staphylococcus aureus SA 3202; assay: as above; format: cell-based; details: MRSA, read-out: MIC MRSA 3202
Protocol: as §1

[6] = tested on: methicillin-resistant Staphylococcus aureus SA 630; assay: as above; format: cell-based; details: MRSA, clinical isolate SA 630, 24 h, 37 °C
Protocol: as §1

[7] = tested on: M. smegmatis ATCC 700084; assay: In vitro antimycobacterial evaluation (broth dilution MIC); format: cell-based, Mycobacterium smegmatis; details: Mycolicibacterium smegmatis, ATCC700084, 72 h; M. smegmatis ATCC 700084, 3 days, 37 °C
[8] = tested on: human monocytic leukemia THP-1 cells; assay: In vitro cytotoxicity assay (LDH); format: cell-based; details: treatment with 20 µmol/L, 24 h
Protocol: Human monocytic leukemia THP-1 cells were obtained from the European Collection of Cell Cultures (ECACC, Salisbury, UK; Methods of characterization: DNA Fingerprinting (Multilocus probes) and isoenzyme analysis). These cells were routinely cultured in RPMI 1640 (Lonza, Verviers, Belgium) medium supplemented with 10% fetal bovine serum (FBS, Sigma-Aldrich), 2% L-glutamine, 1% penicillin and streptomycin (Lonza, Verviers, Belgium) at 37 °C with 5% CO2. Cells were passaged at approximately 1 week intervals. Cells were routinely tested for the absence of mycoplasma (Hoechst 33258 staining method). The tested compounds were dissolved in DMSO (Sigma-Aldrich) and added in five increasing concentrations to the cell suspension in the culture medium. The maximum concentration of DMSO in the assays never exceeded 0.1%. Subsequently, the cells were incubated for 24 h at 37 °C with 5% CO2 to various compound concentrations ranging from 0.37 to 20 μmol/L in RPMI 1640 medium. Cell toxicity was determined using a Cytotoxicity Detection Kit^PLUS Lactate dehydrogenase (LDH) assay kit (Roche Diagnostics, Mannheim, Germany) according to the manufacturer’s instructions, as described previously. […] All data were evaluated using GraphPad Prism 5.00 software (GraphPad Software, San Diego, CA, USA).

[9] = clinical isolate SA 3202, 24 h, 37 °C

Compound `O=C(Nc1ccccc1Cl)c1c(O)ccc2ccccc12` [Compound 5a, N-(2-chlorophenyl)-2-hydroxynaphthalene-1-carboxamide] has a log k [1] of 0.8984, an IC50 [2] of 49.6 µM and an MIC [3] of 215 µM (≈ 64 µg/mL). For the same compound, the MIC [4] was 860 µM (≈ 256 µg/mL), the MIC ([5]; 24 h) was > 860 µM and the MIC [6] was > 860 µM. For the same compound, the MIC [7] was 107 µM (≈ 31.9 µg/mL) and the “lethal effect on THP-1 cells” value [8] was “did not lead to significant lethal effects”.
`O=C(Nc1ccccc1C(F)(F)F)c1c(O)ccc2ccccc12` [Compound 7a, 2-Hydroxy-N-(2-trifluoromethylphenyl)naphthalene-1-carboxamide] gave a log k [1] of 0.8353, an IC50 [2] of 153 µM and an MIC [3] of 97.1 µM (≈ 32.2 µg/mL). The MIC [4] was 193 µM (≈ 63.9 µg/mL), the MIC [5, 9] was 193 µM (≈ 63.9 µg/mL) and the MIC [6] was 97.1 µM (≈ 32.2 µg/mL). For the same compound, the MIC [7] was 386 µM (≈ 128 µg/mL) and the “lethal effect on THP-1 cells” value [8] was “did not lead to significant lethal effects”.
For `O=C(Nc1cccc(C(F)(F)F)c1)c1c(O)ccc2ccccc12` [Compound 7b, 2-Hydroxy-N-(3-trifluoromethylphenyl)naphthalene-1-carboxamide], the log k [1] was 0.9411, the IC50 [2] was 45.6 µM and the MIC [3] was > 748 µM. It also gave an MIC [4] of 187 µM (≈ 62 µg/mL), an MIC [5, 9] of 94 µM (≈ 31.1 µg/mL) and an MIC [6] of 374 µM (≈ 124 µg/mL). The MIC [7] was > 748 µM and the “lethal effect on THP-1 cells” value [8] was “did not lead to significant lethal effects”.
